Read-outs that look alike come from different tables or passages of the source.
Molecular target: T1, F508delCFTR (Homo sapiens, UniProt P13569, DEL508-508)
T1 construct: expressed in transfected cells; host or cells: CFBE41o- human lung-derived epithelial cells (CFBE4lo-F508delCFTR-HRP), doxycycline-inducible
Assay: Cell Surface Expression-Horse Radish Peroxidase (CSE-HRP) Assay;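 as to Maximum % activity (with co-corrector): co-corrector and positive control are both the same reference corrector at 2 µM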;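 as to Maximum % activity (without co-corrector): percent of the 2 µM on-plate positive control corrector response above DMSO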
Type: cell-based
Conditions: for Emax / Maximum % activity (with co-corrector): maximum at any tested concentration, normalized to on-plate positive control; for Emax: read-out: Maximum % activity (without co-corrector)

[1] = test compound without co-corrector
[2] = test compound without co-corrector, read-out: EC50 (without co-corrector)
[3] = with co-corrector (2 μM of 3-[(2R,4R)-4-({[1-(2,2-difluoro-1,3-benzodioxol-5-yl)cyclopropyl]carbonyl}amino)-7-methoxy-3,4-dihydro-2H-chromen-2-yl]benzoic acid)
[4] = with co-corrector (2 μM of 3-[(2R,4R)-4-({[1-(2,2-difluoro-1,3-benzodioxol-5-yl)cyclopropyl]carbonyl}amino)-7-methoxy-3,4-dihydro-2H-chromen-2-yl]benzoic acid), read-out: EC50 (with co-corrector)

T1 sequence (P13569 with tags, fused parts or gaps DEL508-508): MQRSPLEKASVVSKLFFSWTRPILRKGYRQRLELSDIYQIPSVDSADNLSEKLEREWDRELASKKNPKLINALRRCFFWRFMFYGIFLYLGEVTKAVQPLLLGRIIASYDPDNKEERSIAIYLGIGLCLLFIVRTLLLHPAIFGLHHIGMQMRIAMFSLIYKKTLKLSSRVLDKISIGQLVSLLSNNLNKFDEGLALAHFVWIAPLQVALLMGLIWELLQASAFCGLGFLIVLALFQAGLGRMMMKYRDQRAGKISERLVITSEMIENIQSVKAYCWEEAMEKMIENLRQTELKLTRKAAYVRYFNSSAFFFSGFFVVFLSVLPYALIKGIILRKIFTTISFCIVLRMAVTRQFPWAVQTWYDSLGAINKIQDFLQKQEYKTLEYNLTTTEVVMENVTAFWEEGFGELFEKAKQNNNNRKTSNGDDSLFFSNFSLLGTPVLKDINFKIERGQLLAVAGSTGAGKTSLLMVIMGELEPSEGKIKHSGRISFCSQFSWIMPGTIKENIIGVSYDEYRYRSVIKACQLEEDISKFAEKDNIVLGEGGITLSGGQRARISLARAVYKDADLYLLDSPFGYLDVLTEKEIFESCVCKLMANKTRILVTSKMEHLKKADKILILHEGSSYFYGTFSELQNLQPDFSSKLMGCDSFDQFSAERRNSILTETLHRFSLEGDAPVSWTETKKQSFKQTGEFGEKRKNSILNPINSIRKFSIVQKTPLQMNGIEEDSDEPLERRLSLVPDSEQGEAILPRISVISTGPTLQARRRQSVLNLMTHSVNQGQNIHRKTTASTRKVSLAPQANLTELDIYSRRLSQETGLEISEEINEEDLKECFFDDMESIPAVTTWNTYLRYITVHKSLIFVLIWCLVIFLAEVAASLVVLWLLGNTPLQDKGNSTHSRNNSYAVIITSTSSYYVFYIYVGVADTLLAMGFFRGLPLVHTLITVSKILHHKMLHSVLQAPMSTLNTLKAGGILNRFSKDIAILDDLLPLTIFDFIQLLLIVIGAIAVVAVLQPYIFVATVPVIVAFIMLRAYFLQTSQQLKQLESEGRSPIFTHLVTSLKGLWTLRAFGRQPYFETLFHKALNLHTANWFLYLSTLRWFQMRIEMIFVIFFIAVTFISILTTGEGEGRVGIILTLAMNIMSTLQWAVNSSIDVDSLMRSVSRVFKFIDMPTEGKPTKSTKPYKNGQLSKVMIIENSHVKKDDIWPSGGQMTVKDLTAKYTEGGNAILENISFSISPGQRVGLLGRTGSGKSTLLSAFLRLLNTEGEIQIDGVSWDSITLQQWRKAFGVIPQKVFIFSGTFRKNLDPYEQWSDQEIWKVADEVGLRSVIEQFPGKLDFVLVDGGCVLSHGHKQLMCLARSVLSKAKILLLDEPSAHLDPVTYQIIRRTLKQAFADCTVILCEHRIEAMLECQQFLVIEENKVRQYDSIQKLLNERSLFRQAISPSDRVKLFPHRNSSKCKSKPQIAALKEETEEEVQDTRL

Row | SMILES | Emax [1] [%] | EC50 [2] [nM] | Maximum % activity (with co-corrector) [3] | EC50 [4] [nM]
1 | CCc1c(C(=O)N2[C@H](C(=O)O)[C@@H](C(C)(C)C)[C@H](NCc3cc(C(C)(C)C)ccc3OC)[C@@H]2c2ccccc2)c(C)nn1-c1ccc(F)cc1 [II-359] | > 200 | 1000 to 10000 | +++ (≥350) | 1000 to 10000
2 | COc1ccc(C(C)(C)C)cc1CN[C@H]1[C@H](C(C)(C)C)[C@@H](C(=O)O)N(C(=O)c2cnn(C(C)(C)C)c2C(F)(F)F)[C@H]1c1ccccc1 [II-360] | 100 to 200 | 1000 to 10000 | +++ (≥350) | < 1000
3 | COc1ccc(C(C)(C)C)cc1CN[C@H]1[C@H](C(C)(C)C)[C@@H](C(=O)O)N(C(=O)c2cnn(-c3ccccc3)c2C)[C@H]1c1ccccc1 [II-361] | > 200 | 1000 to 10000 | +++ (≥350) | < 1000
4 | CCn1nc(C)c(C(=O)N2[C@H](C(=O)O)[C@@H](C(C)(C)C)[C@H](NCc3cc(C(C)(C)C)ccc3OC)[C@@H]2c2ccccc2)c1C [II-362] | 100 to 200 | 1000 to 10000 | +++ (≥350) | 1000 to 10000
5 | COc1ccc(C(C)(C)C)cc1CN[C@H]1[C@H](C(C)(C)C)[C@@H](C(=O)O)N(C(=O)c2c(C)nn3c2CCCC3)[C@H]1c1ccccc1 [II-363] | 100 to 200 | 1000 to 10000 | +++ (≥350) | 1000 to 10000
6 | COc1ccc(C(C)(C)C)cc1CN[C@H]1[C@H](C(C)(C)C)[C@@H](C(=O)O)N(C(=O)c2cnn3c2CCCC3)[C@H]1c1ccccc1 [II-364] | 100 to 200 | 1000 to 10000 | +++ (≥350) | 1000 to 10000
7 | COc1ccc2c(c1)CCC2C(=O)N1[C@H](C(=O)O)[C@@H](C(C)(C)C)[C@H](NCc2cc(C(C)(C)C)ccc2OC)[C@@H]1c1ccccc1 (some centres unmarked) [II-365] | > 200 | < 1000 | +++ (≥350) | < 1000
8 | COc1ccc(C(C)(C)C)cc1CN[C@H]1[C@H](C(C)(C)C)[C@@H](C(=O)O)N(C(=O)[C@]2(C)CCc3c(OC)cccc32)[C@H]1c1ccccc1 [II-366] | 100 to 200 | 1000 to 10000 | +++ (≥350) | 1000 to 10000
9 | COc1ccc(C(C)(C)C)cc1CN[C@H]1[C@H](C(C)(C)C)[C@@H](C(=O)O)N(C(=O)C2(C)CCc3c(Cl)cccc32)[C@H]1c1ccccc1 (some centres unmarked) [II-367] | 100 to 200 | 1000 to 10000 | +++ (≥350) | 1000 to 10000
10 | COc1ccc(C(C)(C)C)cc1CN[C@H]1[C@H](C(C)(C)C)[C@@H](C(=O)O)N(C(=O)C2(C)CCc3ccccc32)[C@H]1c1ccccc1 (some centres unmarked) [II-368] | 100 to 200 | 1000 to 10000 | +++ (≥350) | 1000 to 10000
11 | COc1ccc(C(C)(C)C)cc1CN[C@H]1[C@H](C(C)(C)C)[C@@H](C(=O)O)N(C(=O)C2CCc3cc(Cl)ccc32)[C@H]1c1ccccc1 (some centres unmarked) [II-369] | > 200 | < 1000 | +++ (≥350) | < 1000
12 | COc1ccc(C(C)(C)C)cc1CN[C@H]1[C@H](C(C)(C)C)[C@@H](C(=O)O)N(C(=O)C2(c3ccccc3)COc3ccccc32)[C@H]1c1ccccc1 (some centres unmarked) [II-370] | < 100 | < 1000 | +++ (≥350) | < 1000
13 | CCC(C)(O)CC(=O)N1[C@H](C(=O)O)[C@@H](C(C)(C)C)[C@H](NCc2cc(C(C)(C)C)ccc2OC)[C@@H]1c1ccccc1 (some centres unmarked) [II-371] | > 200 | 1000 to 10000 | +++ (≥350) | 1000 to 10000
14 | COc1ccc(C(C)(C)C)cc1CN[C@H]1[C@H](C(C)(C)C)[C@@H](C(=O)O)N(C(=O)CC(C)(O)C(C)C)[C@H]1c1ccccc1 (some centres unmarked) [II-372] | > 200 | 1000 to 10000 | +++ (≥350) | 1000 to 10000
15 | COc1ccc(C(C)(C)C)nc1CN[C@H]1[C@H](C(C)(C)C)[C@@H](C(=O)O)N(C(=O)C2CCCCC2)[C@H]1c1ccccc1 [II-373] | 100 to 200 | 1000 to 10000 | +++ (≥350) | 1000 to 10000
16 | COc1ccc(C(C)(C)C)cc1CN[C@H]1[C@H](C(C)(C)C)[C@@H](C(=O)O)N(C(=O)C2CCC(C(F)(F)F)CC2)[C@H]1c1ccccc1 (some centres unmarked) [II-374] | 100 to 200 | 1000 to 10000 | +++ (≥350) | < 1000
17 | COc1ccc(C(C)(C)C)cc1CN[C@H]1[C@H](C(C)(C)C)[C@@H](C(=O)O)N(C(=O)C2CC3C(CC2C)C3(C)C)[C@H]1c1ccccc1 (some centres unmarked) [II-376] | > 200 | 1000 to 10000 | +++ (≥350) | 1000 to 10000
18 | COc1ccc(C(C)(C)C)cc1CN[C@H]1[C@H](C(C)(C)C)[C@@H](C(=O)O)N(C(=O)C2CCC(F)(F)CC2)[C@H]1c1ccccc1 [II-377] | 100 to 200 | 1000 to 10000 | +++ (≥350) | 1000 to 10000

Row | SMILES | Emax [1] [%] | EC50 [2] [nM] | Maximum % activity (with co-corrector) [3] | EC50 [4] [nM]
19 | COc1ccc(C(C)(C)C)cc1CN[C@H]1[C@H](C(C)(C)C)[C@@H](C(=O)O)N(C(=O)C2CCCCC2C(F)(F)F)[C@H]1c1ccccc1 (some centres unmarked) [II-378] | > 200 | < 1000 | +++ (≥350) | < 1000
20 | CCCCOC(=O)N1[C@H](C(=O)O)[C@@H](C(C)(C)C)[C@H](NCc2cc(C(C)(C)C)ccc2OC)[C@@H]1c1ccccc1 [II-383] | > 200 | 1000 to 10000 | +++ (≥350) | < 1000
21 | C#CCOC(=O)N1[C@H](C(=O)O)[C@@H](C(C)(C)C)[C@H](NCc2cc(C(C)(C)C)ccc2OC)[C@@H]1c1ccccc1 [II-384] | > 200 | 1000 to 10000 | +++ (≥350) | 1000 to 10000
22 | CCCCCOC(=O)N1[C@H](C(=O)O)[C@@H](C(C)(C)C)[C@H](NCc2cc(C(C)(C)C)ccc2OC)[C@@H]1c1ccccc1 [II-385] | > 200 | < 1000 | +++ (≥350) | < 1000
23 | COc1ccc(C(C)(C)C)cc1CN[C@H]1[C@H](C(C)(C)C)[C@@H](C(=O)O)N(C(=O)O[C@H]2C[C@@H](C)CC[C@@H]2C(C)C)[C@H]1c1ccccc1 [II-386] | > 200 | < 1000 | +++ (≥350) | < 1000
24 | C=CCCOC(=O)N1[C@H](C(=O)O)[C@@H](C(C)(C)C)[C@H](NCc2cc(C(C)(C)C)ccc2OC)[C@@H]1c1ccccc1 [II-387] | > 200 | 1000 to 10000 | +++ (≥350) | 1000 to 10000
25 | COC(=O)N1[C@H](C(=O)O)[C@@H](C(C)(C)C)[C@H](NCc2cc(C(C)(C)C)ccc2OC)[C@@H]1c1ccccc1 [II-388] | > 200 | 1000 to 10000 | +++ (≥350) | 1000 to 10000
26 | CC#CCOC(=O)N1[C@H](C(=O)O)[C@@H](C(C)(C)C)[C@H](NCc2cc(C(C)(C)C)ccc2OC)[C@@H]1c1ccccc1 [II-389] | 100 to 200 | 1000 to 10000 | +++ (≥350) | 1000 to 10000
27 | CCCOC(=O)N1[C@H](C(=O)O)[C@@H](C(C)(C)C)[C@H](NCc2cc(C(C)(C)C)ccc2OC)[C@@H]1c1ccccc1 [II-390] | > 200 | 1000 to 10000 | +++ (≥350) | 1000 to 10000
28 | C=CCOC(=O)N1[C@H](C(=O)O)[C@@H](C(C)(C)C)[C@H](NCc2cc(C(C)(C)C)ccc2OC)[C@@H]1c1ccccc1 [II-391] | > 200 | 1000 to 10000 | +++ (≥350) | 1000 to 10000
29 | COc1ccc(C(C)(C)C)cc1CN[C@H]1[C@H](C(C)(C)C)[C@@H](C(=O)O)N(C(=O)OCC(C)(C)C)[C@H]1c1ccccc1 [II-392] | > 200 | < 1000 | +++ (≥350) | < 1000
30 | COc1ccc(C(C)(C)C)cc1CN[C@@H]1[C@@H](C(C)(C)C)[C@@H](C(=O)O)N(C(=O)[C@H](OC)c2ccccc2)[C@H]1c1ccccc1 [II-393] | < 100 | 1000 to 10000 | ++ (≥150 and <350) | 1000 to 10000
31 | COC1(CN[C@H]2[C@H](C(C)(C)C)[C@@H](C(=O)O)N(C(=O)C3CCCCC3)[C@H]2c2ccccc2)CCCCC1 [II-394] | 100 to 200 | 1000 to 10000 | +++ (≥350) | 1000 to 10000
32 | COc1ccc(C(F)(F)F)cc1CN[C@@H]1[C@@H](C(C)(C)C)[C@@H](C(=O)O)N(C(=O)[C@H](OC)c2ccccc2)[C@H]1c1ccccc1 [II-395] | < 100 | 1000 to 10000 | ++ (≥150 and <350) | 1000 to 10000
33 | COc1ccc(C(C)(C)C)cc1CN[C@H]1[C@H](C(C)(C)C)[C@@H](C(=O)O)N(C(=O)[C@@H](OC)c2ccc(F)c(F)c2)[C@H]1c1ccccc1 [II-396] | 100 to 200 | 1000 to 10000 | +++ (≥350) | 1000 to 10000
34 | COc1ccc(C(F)(F)F)cc1CN[C@H]1[C@H](C(C)(C)C)[C@@H](C(=O)O)N(C(=O)C2CCc3cc(C)ccc3O2)[C@H]1c1ccccc1 (some centres unmarked) [II-397] | 100 to 200 | 1000 to 10000 | +++ (≥350) | < 1000
35 | COc1ccc(C(F)(F)F)cc1CN[C@H]1[C@H](C(C)(C)C)[C@@H](C(=O)O)N(C(=O)C2CCc3ccc(F)cc3O2)[C@H]1c1ccccc1 (some centres unmarked) [II-398] | < 100 | 1000 to 10000 | +++ (≥350) | 1000 to 10000
